Test results published in patent publication US7582651B2, “Pyrrolopyridine derivative and use thereof” (Takeda Pharmaceutical Company Limited, priority 2002, dated 2009).

Key:
SD male rats = assay: Measurement of bladder volume (saline infusion under urethane anesthesia); type: in vivo, rat; conditions: sc, 12 hours after administration
Procedure: Measurement of Mouse Bladder Volume
Six or seven of 7 weeks old SD male rats were used in a group in this test. At 12 hours after the subcutaneous administration of the drug, the abdomen of rat was cut open under urethane anesthesia (1.2 g/kg, ip) to expose the bladder. Physiological saline solution was infused into the bladder at the rate of 0.1 ml/minutes to check excretion reflection. All of the urine was drained off, and the physiological saline solution was infused again, and then, the bladder volume of mouse was calculated by measuring the time to urination.

ICR male mice [1] = assay: Tail-flick test (55° C. water bath); type: in vivo, mouse; conditions: po
Procedure: Eight of 5 weeks old ICR male mice were used in a group in this test. The tail of the mouse was dipped by about 2 cm from the end into water in a water bath warmed to 55° C., and the latency to lift the tail up was measured. The latency was previously measured before the administration of the drug, and the mouse having the latency of 2 seconds or less was selected and used in the test. The drug was administered orally, and the latency was measured after 3, 6 and 24 hours. Cut-off time was set to 5 seconds. The drug was suspended in 0.5% methylcellulose, and the dose was 20 ml/kg BW.

[2] = tested on: vanilloid receptor-1 (VR1) expressed in CHO-K1 cells (RVR1/CHO and HVR1/CHO strains); assay: Evaluation of compounds based on cell death (survival rate of VR1-expressing CHO strains); set-up: species or system rat, human; conditions: 1 μM test compound, 3 hours reaction, Alama Blue, cultured 20 hours; strain (RVR1/CHO or HVR1/CHO) not stated
Procedure: CHO-K1 cells (ATCC No.: CCL-61) were grown in a 150 cm^2 of a cell culture flask (Corning Coaster) using a Ham's F12 medium (GIBCO BRL) containing 10% fetal bovine serum (GIBCO BRL) and were collected from the flask by using 0.5 g/L trypsin-0.2 g/L EDTA (GIBCO BRL). The cells were washed with PBS (GIBCO BRL), centrifuged (1000 rpm, 5 minutes) and suspended in PBS. Then, the DNA was introduced into the cells using Gene Pulser (Bio-Rad Laboratories Inc.) under the following conditions. Namely, 1×10^7 cells and 15 μg of plasmid pRVR1 for expression of rat VR1 were added into a cuvette having a 0.4 cm of gap, and electroporation was carried out at an electric voltage of 0.25 kV and a capacitance of 960 μF. Subsequently, the cells were transferred into the Ham's F12 medium containing 10% fetal bovine serum, and incubated for 24 hours. The cells were then collected, centrifuged and suspended in Ham's F12 medium containing 10% fetal bovine serum and Geneticin (GIBCO BRL) at a concentration of 500 μg/ml. […]
Subsequently, the resulting Geneticin-resistant strains were cultured in the 96-well plates (Corning Coaster). […] Subsequently, the radioactivity was measured with TopCount (Packard Industry Company, Inc.) to select RVR1/CHO strains of which calcium concentration in the cells is increased when capsaicin is added thereto. […]

ICR male mice [3] = assay: Mouse eye dropping test (stimulating and desensitizing activity, capsaicin challenge); type: in vivo; conditions: 0.01 ml dropped to the eye; capsaicin (0.3 μg) 1 hour after initial treatment; desensitizing activity
Procedure: Eight of 4 to 5 weeks old ICR male mice (Japan SLC Inc.) were used in a group in this test. 0.01 ml of the drug was added dropwise to the eye, and the time when the mouse continued to close the eye was measured. The stimulation of the drug was evaluated as positive when the time is more than 10 seconds, and as negative when the time is 10 seconds or less. At 1 hour after the initial treatment, a solution of capsaicin (0.3 μg) was added dropwise to the eye to evaluate whether the stimulation is or not, and examined the desensitizing activity of the compound. The stimulating and desensitizing activity of the drug were calculated as a value of ED50. The drug was dissolved in a mixture of 10% ethanol, 20% Tween 80 and 70% physiological saline solution.

With `Cc1cc(C)c2c(C#N)c(/C=C/C(=O)NC3CCOC(C)(C)C3)n(C3CCc4ccccc43)c2n1` (stereo not drawn) [Example 51, (2E)-3-[3-cyano-1-(indan-1-yl)-4,6-dimethyl-1H-pyrrolo[2,3-b]pyridin-2-yl]-N-(2,2-dimethyltetrahydro-2H-pyran-4-yl)acrylamide] the Bladder capacity (SD male rats; 3 mg/kg) was 1.76 ± 0.37 mL, the Bladder capacity (SD male rats; 10 mg/kg) was 1.57 ± 0.23 mL and the Latency (ICR male mice [1]; 10 mg/kg, 3 h after administration) was 0.85 ± 0.10 s. It also gave a Latency (ICR male mice [1]; 10 mg/kg, 6 h after administration) of 0.64 ± 0.04 s, a Latency (ICR male mice [1]; 10 mg/kg, 24 h after administration) of 0.78 ± 0.04 s and a Latency (ICR male mice [1]; 10 mg/kg, Pre (before administration)) of 0.55 ± 0.02 s. The Latency (ICR male mice [1]; 30 mg/kg, 3 h after administration) was 2.31 ± 1.13 s, the Latency (ICR male mice [1]; 30 mg/kg, 6 h after administration) was 2.04 ± 1.15 s and the Latency (ICR male mice [1]; 30 mg/kg, 24 h after administration) was 3.36 ± 1.02 s. It also gave a Latency (ICR male mice [1]; 30 mg/kg, Pre (before administration)) of 0.70 ± 0.07 s.
With `Cc1cc(C)c2c(C#N)c(/C=C/C(=O)N[C@@H]3CCOC(C)(C)C3)n([C@H]3CCCc4ccccc43)c2n1` [Example 74, (2E)-3-{3-cyano-4,6-dimethyl-1-[(1S)-1,2,3,4-tetrahydronaphthalen-1-yl]-1H-pyrrolo[2,3-b]pyridin-2-yl}-N-[(4R)-2,2-dimethyltetrahydro-2H-pyran-4-yl]prop-2-enamide] the “survival rate of the cells” value [2] was 2% and the ED50 (ICR male mice [3]) was 0.55 µg.
